Laboratory results from patent US10538571B2, “Compositions and methods for neurological diseases” (Coda Biotherapeutics, Inc., priority 2017, dated 2020).

Legend:
Assay type in all cases: cell-based
[1] = target: T1, engineered chimeric LGIC receptor SEQ ID NO:41 (as SEQ ID NO:33, further comprising the β1-β2 loop domain from GlyRα1) (Homo sapiens, UniProt P36544, F159M/H163T/I152M/K68T/N69T/Q70M/R155K/V154L/W156N/Y151P); assay: Two electrode voltage clamp currents in Xenopus oocytes expressing the receptor; conditions: FIG. 5
T1 construct: expressed in transfected cells; host or cells: Xenopus oocytes (cDNA injection)
Experimental: (§1) For Xenopus oocyte studies, injections of cDNAs encoding for ion channels at a final concentration of 0.04 μg/μL were performed using a proprietary automated injection device and receptor expression examined at least two days later. Oocytes were poked with two electrodes and their membrane potential maintained at −80 mV throughout the experiment. All recordings were performed at 18° C. and cells were superfused with OR2 medium containing in mM: NaCl 82.5, KCl 2.5, HEPES 5, CaCl2.2H2O 1.8, MgCl2.6H2O 1, pH 7.4. Recordings progressed if oocytes had sufficiently low holding current, in which case they were then subjected to ligand or test compound application (5-10 s wash intervals), with 100 s of wash in between doses. Currents evoked by acetylcholine or other agonists were recorded using an automated process equipped with standard two electrode voltage clamp configuration (TEVC). Data were captured and analyzed using HiQScreen proprietary data acquisition and analysis software running under Matlab (Mathworks Inc.). Acetylcholine was prepared as a concentrated stock solution (10-1 M) in water and then diluted in the recording medium to obtain the desired test concentration. Nicotine was diluted in water as stock solution (10-1 M), kept frozen and diluted immediately prior to the experiment at the desired concentration. Compounds were prepared as stock solution (10-1M) in OR2 and then diluted in the recording medium to obtain the desired test concentration. Stock solution for Compound-1 was made in OR2 at pH 5 adjusted with HCl. To assess that dilution at the final concentration of this stock solution introduced no significant changes, the pH of the final solution was confirmed using a colorimetric assay (Galietta L. J. V., et al. 2001. FEBS Letters 499: 220-224. Kruger W., et al. (2005). Neuroscience Letters 380: 340-345.)
(§2) To better understand the impact of the heterologous domains that had been inserted into the channels, the ligand-dependent response profiles of wild type α7-nAChR and various engineered chimeric LGIC receptors to acetylcholine as well as to non-native ligands TC-6987, AZD-0328, and Facinicline/RG3487 were assessed. Receptors were transiently expressed in […] cells and currents were measured on an automated patch clamp system (Fluxion Biosciences) following 1 second addition of drug. Inclusion of a GlyRα1 Cys-loop sequence in the extracellular domain increased the potency of all small molecules on the engineered receptor (leftward shift in EC50) (e.g. SEQ ID NO:35, FIG. 4C vs SEQ ID NO:16, FIG. 4B). […] Inclusion of both the Cys-loop and β1-β2 loop sequences of GlyRα1 in the extracellular domain reduced the sensitivity by about 1 log from that observed with the full Cys-loop sequence alone, but further increased conductance approximately 2-fold and slowed the rate of deactivation of the channel (SEQ ID NO:41, FIG. 4E vs. SEQ ID NO:33, FIG. 4D).

[2] = target: T2, engineered chimeric LGIC receptor SEQ ID NO:33 (α7-nAChR ligand binding domain with GlyRα1 Cys-loop, GlyRα1 ion pore domain) (Homo sapiens, UniProt P36544, F159M/H163T/I152M/R155K/V154L/W156N/Y151P); assay: as above; conditions: Xenopus oocytes; FIG. 5
T2 construct: expressed in transfected cells; host or cells: Xenopus oocytes (cDNA injection)
Experimental: as §1, §2

[3] = target: T3, SEQ ID NO:33 with substitution W77M (Homo sapiens, UniProt P36544, F159M/H163T/I152M/R155K/V154L/W156N/W77M/Y151P); assay: Plate reader YFP quench (anion reporter) assay, dose response curves; conditions: FIG. 9B
T3 construct: expressed in transfected cells; host or cells: Lenti-X 293T (HEK293T) cells, pcDNA3.1(+) plasmid
Experimental: (§3) Lenti-X 293T cells (LX293T, Clontech) were maintained in DMEM containing 10% FBS and 1% penicillin/streptomycin (Invitrogen). […] The next day, the cells were transiently transfected with 0.1 μg of DNA per well using standard Fugene protocol (Promega). On the day of assay, cells were washed 2 times in 1× extracellular solution (1×ECS: 140 mM NaCl, 5 mM KCl, 1 mM MgCl2, 2 mM CaCl2, 10 mM HEPES, 10 mM glucose, pH 7.2, mOsms 300). After the last wash, 100 μL of 1×ECS was added to the wells and the plate was incubated at 37° C. for 30 min. While incubating the plate, the drugs were diluted to a 2× concentration in 1×ECS-NaI (same components as 1×ECS except the 140 mM NaCl was replaced by 140 mM NaI). The plates were then read on a Flexstation3 (Molecular Devices). Each well, 8 wells at a time, of the plate is read for 2 min using a Flexstation3 (Molecular Devices) as follows: 1) a baseline YFP fluorescence is read for 17 sec, 2) 100 μL of ligand is added, and 3) the changes in YFP fluorescence are then measured every 1.3 sec for the remaining time.
(§4) To further tune the responsiveness of the engineered LGIC receptors to native and non-native ligands, the binding pocket of each ligand in the alpha7-nAChR was modeled and the amino acid residues that form the binding pocket were mapped. […]

[4] = target: T4, engineered chimeric LGIC receptor SEQ ID NO:41 (Homo sapiens, UniProt P36544, F159M/H163T/I152M/K68T/N69T/Q70M/R155K/V154L/W156N/Y151P); assay: Plate reader YFP quench plots; conditions: FIG. 7
T4 construct: expressed in transfected cells; host or cells: Lenti-X 293T cells stably expressing YFP (H148Q/I152L) reporter; pcDNA3.1(+) plasmid
Experimental: as §3, §4

T4 sequence (P36544 with tags, fused parts or gaps K68T/N69T/Q70M/Y151P/I152M/V154L/R155K/W156N/F159M/H163T): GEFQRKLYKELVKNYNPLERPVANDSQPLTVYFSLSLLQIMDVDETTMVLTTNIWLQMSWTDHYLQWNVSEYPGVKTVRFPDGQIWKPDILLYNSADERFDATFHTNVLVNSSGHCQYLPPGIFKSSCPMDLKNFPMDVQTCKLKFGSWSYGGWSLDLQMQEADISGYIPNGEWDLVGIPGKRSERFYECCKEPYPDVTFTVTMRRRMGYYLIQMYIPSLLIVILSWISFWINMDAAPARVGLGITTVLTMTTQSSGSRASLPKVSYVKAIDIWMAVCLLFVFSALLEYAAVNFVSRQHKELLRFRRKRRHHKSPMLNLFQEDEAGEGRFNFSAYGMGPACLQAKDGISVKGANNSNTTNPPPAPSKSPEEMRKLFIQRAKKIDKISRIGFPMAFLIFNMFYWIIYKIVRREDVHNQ
T1 sequence (P36544 with tags, fused parts or gaps K68T/N69T/Q70M/Y151P/I152M/V154L/R155K/W156N/F159M/H163T): as above
T3 sequence (P36544 with tags, fused parts or gaps W77M/Y151P/I152M/V154L/R155K/W156N/F159M/H163T): as the sequence (P36544 with tags, fused parts or gaps K68T/N69T/Q70M/Y151P/I152M/V154L/R155K/W156N/F159M/H163T) above, with T46K, T47N, M48Q, W55M counted along it
T2 sequence (P36544 with tags, fused parts or gaps Y151P/I152M/V154L/R155K/W156N/F159M/H163T): as the sequence (P36544 with tags, fused parts or gaps K68T/N69T/Q70M/Y151P/I152M/V154L/R155K/W156N/F159M/H163T) above, with T46K, T47N, M48Q counted along it

SMILES: c1cnc2c(c1)C[C@@]1(CN3CCC1CC3)O2 [AZD-0328]
- sensitivity of SEQ ID NO:41 to ligand compared with wild type α7-nAChR [1]: comparably sensitive
- fold more sensitive than wild type α7-nAChR [2]: approximately 3 fold
- increase in EC50 (rightward shift) compared to unmutated SEQ ID NO:33 [3]: > 2 log
- response of Chimera #41 compared with Chimera #33 [4]: responds to lower doses
